# In publication PMC8956739, “A synthetic lipopeptide targeting top-priority multidrug-resistant Gram-negative pathogens” (Nature Communications, 2022):
# Where “and” joins values, the source holds several entries; their conditions need not be identical. Identical values can stand only once. Like-named read-outs stand apart in the source and are kept apart here. Residues, ends and D or L forms follow the SMILES beside them.
# Key:
# [1] = test system: P. aeruginosa FADDI-PA090; format: cell-based, Pseudomonas aeruginosa
# Outline: (§1)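 MICs came from broth microdilution in cation-adjusted Mueller–Hinton broth against clinical isolates. For surfactant binding, P. aeruginosa ATCC 27853 was additionally tested with 10% Survanta® (v/v, 2.5 mg/mL phospholipids) added to the polymyxin-containing broth.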
# [2] = test system: P. aeruginosa FADDI-PA070; format: cell-based, Pseudomonas aeruginosa
# Outline: as §1
# [3] = format: in vitro ADME; settings: plasma
# Procedure: (§2) The plasma pharmacokinetic profiles of F365 and polymyxin B were assessed in Swiss mice (female, 7-week-old, 22–28 g) after a single intraperitoneal dose (5 mg/kg, n = 3). Blood samples were collected at various time points over 24 h post dosing for analysis. The plasma pharmacokinetic profiles of F365 (n = 5) and polymyxin B (1 mg/kg, n = 11) in Sprague-Dawley rats (male, 10-week-old, 280 to 330 g) were assessed after intravenous administration (1 min) of F365 and polymyxin B via an indwelling jugular vein cannula. Blood samples (~0.3 mL) were collected via an indwelling carotid artery cannula at various time points over 24 h post dosing. Urine samples were collected at 4 °C using a metabolic cage during the period between 0 and 24 h post dosing. Concentrations of F365 and polymyxin B in plasma and urine samples were determined using LC-MS/MS and pharmacokinetic analysis was conducted using WinNonlin (Pharsight Corp., Mountain View, CA). The ELF pharmacokinetic profiles of F365 and polymyxin B was determined in neutropenic Swiss mice (female, 7-week-old, 22–28 g) after subcutaneous injection (40 mg/kg, n = 3). Bronchoalveolar lavage (BAL) samples were collected at various time points over 24 h post dosing from the cannulated trachea using Milli-Q water as BAL washing media. The average volume of ELF in mice was calculated by the ratio of urea concentrations in plasma and BAL samples. Concentrations of F365 and polymyxin B in plasma and BAL were analyzed by LC-MS/MS. Pharmacokinetic parameters were calculated using a non-compartment model with WinNonlin. For mouse, rat, and human plasma protein binding of F365 and polymyxin B, pooled plasma samples (n = 3) from each species were spiked with F365 or polymyxin B. The spiked plasma samples were subjected to ultrafiltration and the corresponding filtrates were analyzed by LC-MS/MS to determine the concentration of F365 and polymyxin B and the protein binding in each species.
# [4] = test system: K. pneumoniae FADDI-KP132; assay: MIC, polymyxin-resistant isolate; format: cell-based, Klebsiella pneumoniae; settings: mcr-1 positive
# Procedure: MICs were determined in cation-adjusted Mueller–Hinton broth (CaMHB) by the broth micro-dilution method against ATCC strains and clinical isolates. MICs in the presence of Survanta® were determined as described above against P. aeruginosa ATCC 27853. In the 100 μL of fresh CaMHB containing polymyxins, 10% Survanta® (v/v, 2.5 mg/mL phospholipids) was added. MICs in the presence and absence of Survanta® were compared to determine the effect of binding to lung surfactant on the antibacterial activity of polymyxins.
# [5] = in vivo
# Procedure: as §2
# A. baumannii FADDI-AB156 = assay: Neutropenic mouse pneumonia model, polymyxin-resistant isolate; format: in vivo; settings: for Tukey HSD diff, Pre-treatment minus treated group (Log10 CFU/lung) / Tukey HSD diff, Vehicle minus treated group (Log10 CFU/lung): Fig. e; for Log10 CFU/lung: Figure 3e, individual mice
# Procedure: (§3) The experimental methodology for the neutropenic mouse lung infection model was previously described in detail. Briefly, Swiss mice (female, 7-week-old, 22–28 g) were rendered neutropenic by intraperitoneal administration of cyclophosphamide, 4 days (150 mg/kg) and 1 day (100 mg/kg) prior to inoculation. Lung infection was established by the administration of 25 µL of early log-phase bacterial suspension (polymyxin-susceptible or resistant isolate, 4 × 10^7 CFU/mL), directly into the lungs via the trachea using a MicroSprayer™ device. Lipopeptide solutions were prepared in sterile saline. At 2 h after inoculation, mice (n = 3 or 4) were administered lipopeptide (45–240 mg/kg/d free base) or control (sterile saline) via an intraperitoneal or subcutaneous bolus injection in three divided doses every 8 h. At 0 or 24 h after the administration of lipopeptide solution or saline (control), animals were euthanized and lungs were collected and homogenized under sterile conditions. Homogenate was filtered and the filtrate was collected, serially diluted in sterile saline, and spread on nutrient agar plates. Agar plates were incubated at 37 °C overnight for bacterial colony counting and the bacterial load of the lung (log10 CFU/lung) in each mouse was calculated. In vivo efficacy was calculated as the difference of the log10 CFU/lung values between the treated mice at 24 h and the pre-treatment (control) at 0 h (Δlog10 CFU/lung = log10 [treated] CFU/lung − log10 [pre-treatment] CFU/lung).
# [6] = test system: P. aeruginosa FADDI-PA102; assay: as above; format: in vivo; settings: for Tukey HSD diff, Pre-treatment minus treated group (Log10 CFU/lung) / Tukey HSD diff, Vehicle minus treated group (Log10 CFU/lung): Fig. d; for Log10 CFU/lung: Figure 3d, individual mice
# Procedure: as §3
# [7] = test system: K. pneumoniae FADDI-KP132 (mcr-1 positive); assay: as above; format: in vivo; settings: for Tukey HSD diff, Pre-treatment minus treated group (Log10 CFU/lung) / Tukey HSD diff, Vehicle minus treated group (Log10 CFU/lung): Fig. f; for Log10 CFU/lung: Figure 3f, individual mice
# Procedure: as §3
# A. baumannii FADDI-AB144 = format: cell-based, Acinetobacter baumannii
# Outline: as §1
# A. baumannii FADDI-AB161 = format: cell-based, Acinetobacter baumannii
# Outline: as §1
# A. baumannii FADDI-AB051 = format: cell-based, Acinetobacter baumannii
# Outline: as §1
compound,measurement,setting,value
"CC[C@@H]1NC(=O)[C@@H](CC(C)C)NC(=O)[C@H](CCN)NC(=O)[C@@H](NC(=O)[C@H](CN)NC(=O)[C@@H](NC(=O)[C@H](CCN)NC(=O)c2ccc(Cl)cc2Cl)[C@@H](C)O)CCNC(=O)[C@H]([C@@H](C)O)NC(=O)[C@H](CCN)NC(=O)[C@H](CCN)NC1=O [Lipopeptide F365] (HELM PEPTIDE1{[O=C(c1ccc(Cl)cc1Cl)[*:2]].[Dab].T.[NC[C@H](N[*:1])C(=O)[*:2]].[Dab].[Dab].[dL].[Abu].[Dab].[Dab].T}$PEPTIDE1,PEPTIDE1,5:R3-11:R2$$$V2.0)",MIC P. aeruginosa FADDI-PA090,[1]; FADDI-PA090,8 µg/mL
same,MIC P. aeruginosa FADDI-PA070,[2]; FADDI-PA070,> 32 µg/mL
same,fraction unbound,[3]; human,0.55
same,fraction unbound,[3]; mouse,0.64
same,fraction unbound,[3]; rat,0.67
same,MIC K. pneumoniae FADDI-KP132,[4],8 µg/mL
same,AUC(0-inf),"[5]; mouse, sc, 40 mg/kg",86200 ng·h/mL
same,Cmax in ELF relative to polymyxin B,"[5]; mouse, sc, 40 mg/kg",3 fold
same,Free AUC(0-∞) in ELF (estimated fAUCELF),"[5]; mouse, sc, 40 mg/kg",86200 ng·h/mL
same,Total CL,"[5]; mouse, sc, 40 mg/kg",7.67 mL/min/kg
same,half-life,"[5]; mouse, sc, 40 mg/kg",3.39 h
same,urinary recovery relative to polymyxin B,[5]; rat,> 4 fold
same,AUC(0-inf),"[5]; rat, iv, 1 mg/kg",2400 ng·h/mL
same,clearance,"[5]; rat, iv, 1 mg/kg",7.67 mL/min/kg
same,half-life,"[5]; rat, iv, 1 mg/kg",0.91 h
same,"Tukey HSD diff, Pre-treatment minus treated group (Log10 CFU/lung)",A. baumannii FADDI-AB156; 120mg/kg/d,2.4325
same,"Tukey HSD diff, Vehicle minus treated group (Log10 CFU/lung)",A. baumannii FADDI-AB156; 120mg/kg/d,3.826
same,"Tukey HSD diff, Pre-treatment minus treated group (Log10 CFU/lung)",A. baumannii FADDI-AB156; 240mg/kg/d,4.209
same,"Tukey HSD diff, Vehicle minus treated group (Log10 CFU/lung)",A. baumannii FADDI-AB156; 240mg/kg/d,5.603
same,Log10 CFU/lung,A. baumannii FADDI-AB156; 120mg/kg/d,4.13 Log10 CFU/lung and 5.08 Log10 CFU/lung and 3.12 Log10 CFU/lung
same,Log10 CFU/lung,A. baumannii FADDI-AB156; 240mg/kg/d,1.94 Log10 CFU/lung and 2.42 Log10 CFU/lung and 2.64 Log10 CFU/lung
same,"Tukey HSD diff, Pre-treatment minus treated group (Log10 CFU/lung)",[6]; 120mg/kg/d,0.69
same,"Tukey HSD diff, Vehicle minus treated group (Log10 CFU/lung)",[6]; 120mg/kg/d,1.074
same,"Tukey HSD diff, Pre-treatment minus treated group (Log10 CFU/lung)",[6]; 240mg/kg/d,3.307
same,"Tukey HSD diff, Vehicle minus treated group (Log10 CFU/lung)",[6]; 240mg/kg/d,3.691
same,Log10 CFU/lung,[6]; 120mg/kg/d,6.56 Log10 CFU/lung and 6.03 Log10 CFU/lung and 7.00 Log10 CFU/lung
same,Log10 CFU/lung,[6]; 240mg/kg/d,4.07 Log10 CFU/lung and 3.82 Log10 CFU/lung and 3.85 Log10 CFU/lung
same,reduction in CFU/lung,"[7]; 240 mg/kg/d subcutaneously, 24 h, maximum over the polymyxin-resistant isolates",up to 4.65 log10 CFU/lung
same,"Tukey HSD diff, Pre-treatment minus treated group (Log10 CFU/lung)",[7]; 120mg/kg/d,1.795
same,"Tukey HSD diff, Vehicle minus treated group (Log10 CFU/lung)",[7]; 120mg/kg/d,4.6875
same,"Tukey HSD diff, Pre-treatment minus treated group (Log10 CFU/lung)",[7]; 240mg/kg/d,4.6475
same,"Tukey HSD diff, Vehicle minus treated group (Log10 CFU/lung)",[7]; 240mg/kg/d,7.54
same,Log10 CFU/lung,[7]; 120mg/kg/d,4.02 Log10 CFU/lung and 5.39 Log10 CFU/lung and 2.64 Log10 CFU/lung and 2.94 Log10 CFU/lung
same,Log10 CFU/lung,[7]; 240mg/kg/d,0.00 Log10 CFU/lung (2×) and 1.64 Log10 CFU/lung and 1.94 Log10 CFU/lung
same,MIC A. baumannii FADDI-AB144,A. baumannii FADDI-AB144; FADDI-AB144,32 µg/mL
same,MIC A. baumannii FADDI-AB161,A. baumannii FADDI-AB161; FADDI-AB161,1 µg/mL
same,MIC A. baumannii FADDI-AB051,A. baumannii FADDI-AB051; FADDI-AB051,0.5 µg/mL
Polymyxin B [reference compound],MIC P. aeruginosa FADDI-PA090,[1]; polymyxin-resistant,4 µg/mL
same,MIC P. aeruginosa FADDI-PA070,[2]; polymyxin-resistant,> 32 µg/mL
same,Protein binding,[3]; human,68%
same,Protein binding,[3]; mouse,95%
same,Protein binding,[3]; rat,80%
same,MIC K. pneumoniae FADDI-KP132,[4],8 µg/mL
same,AUC(0-∞) in ELF,"[5]; mouse, sc, 40 mg/kg",80000 ng·h/mL
same,Free AUC(0-∞) in ELF (estimated fAUCELF),"[5]; mouse, sc, 40 mg/kg",10000 ng·h/mL
same,Total CL,"[5]; mouse, sc, 40 mg/kg",8.33 mL/min/kg
same,half-life,"[5]; mouse, sc, 40 mg/kg",6.70 h
same,half-life,"[5]; rat, iv, 1 mg/kg",1.45 h
same,"Tukey HSD diff, Pre-treatment minus treated group (Log10 CFU/lung)",A. baumannii FADDI-AB156; 90mg/kg/d,-1.5075
same,"Tukey HSD diff, Vehicle minus treated group (Log10 CFU/lung)",A. baumannii FADDI-AB156; 90mg/kg/d,-0.114
same,Log10 CFU/lung,A. baumannii FADDI-AB156; 90mg/kg/d,8.23 Log10 CFU/lung and 8.17 Log10 CFU/lung and 7.75 Log10 CFU/lung
same,"Tukey HSD diff, Pre-treatment minus treated group (Log10 CFU/lung)",[6]; 90mg/kg/d,-0.1967
same,"Tukey HSD diff, Vehicle minus treated group (Log10 CFU/lung)",[6]; 90mg/kg/d,0.1873
same,Log10 CFU/lung,[6]; 90mg/kg/d,7.28 Log10 CFU/lung and 7.23 Log10 CFU/lung and 7.74 Log10 CFU/lung
same,"Tukey HSD diff, Pre-treatment minus treated group (Log10 CFU/lung)",[7]; 90mg/kg/d,-1.82
same,"Tukey HSD diff, Vehicle minus treated group (Log10 CFU/lung)",[7]; 90mg/kg/d,1.0725
same,Log10 CFU/lung,[7]; 90mg/kg/d,7.88 Log10 CFU/lung and 8.02 Log10 CFU/lung and 6.98 Log10 CFU/lung and 6.57 Log10 CFU/lung
same,MIC A. baumannii FADDI-AB144,A. baumannii FADDI-AB144; polymyxin-resistant,16 µg/mL
same,MIC A. baumannii FADDI-AB161,A. baumannii FADDI-AB161; polymyxin-resistant,8 µg/mL
same,MIC A. baumannii FADDI-AB051,A. baumannii FADDI-AB051; carbapenem-resistant,0.5 µg/mL
